Holding throughout (format): functional
For one experiment, the system named is Clostridium tetani. Briefly: Antibacterial activity against Clostridium tetani MTCC 449 after overnight incubation by broth microdilution method. (Broth dilution looks for growth in wells or tubes with falling amounts of substance.)
Another experiment deals with Candida albicans. Briefly: Antifungal activity against Candida albicans MTCC 227 after overnight incubation by broth microdilution method.
In the next experiment the test system is Aspergillus fumigatus. Briefly: Antifungal activity against Aspergillus fumigatus MTCC 3008 after overnight incubation by broth microdilution method.
Experiment [1] deals with Mycobacterium tuberculosis. Briefly: Growth inhibition of Mycobacterium tuberculosis H37Rv at 6.25 ug/ml after 28 days by Lowenstein-Jensen method. As to conditions: 672 h, read-out: GI.
In a further experiment the test system is Escherichia coli. Briefly: Antibacterial activity against Escherichia coli MTCC 443 after overnight incubation by broth microdilution method.
In the next experiment the test system is Vibrio cholerae. Briefly: Antibacterial activity against Vibrio cholerae MTCC 3906 after overnight incubation by broth microdilution method.
For experiment [2], the system named is Mycobacterium tuberculosis. Kind of experiment: Antitubercular activity against Mycobacterium tuberculosis H37Rv after 28 days by Lowenstein-Jensen method. The settings on record: 672 h.
For another experiment, the system named is Streptococcus pneumoniae. Kind of experiment: Antibacterial activity against Streptococcus pneumoniae MTCC 1936 after overnight incubation by broth microdilution method.
Another experiment concerns Salmonella typhi. Kind of experiment: Antibacterial activity against Salmonella enterica subsp. enterica serovar Typhi MTCC 98 after overnight incubation by broth microdilution method.
In a further experiment the test system is Bacillus subtilis. Kind of experiment: Antibacterial activity against Bacillus subtilis MTCC 441 after overnight incubation by broth microdilution method.

In brackets after ≈: the same amount, converted by molar mass.

A word on the MIC99: it is the lowest concentration that inhibits either 99% of growth or 99% of the strains tested, depending on the study. The low end stands for higher susceptibility, the high end for lower susceptibility. Broadly, the MIC is the lowest concentration found to suppress growth. Read a high MIC as a less susceptible organism. For the compound `COc1ccc2nc(Oc3ccc(F)cc3)c(-c3c(C#N)c(N)n4c(nc5cc(C)ccc54)c3C#N)cc2c1`, the MIC99 stood at 100 mg/L (≈ 194 µM) against Clostridium tetani; 500 mg/L (≈ 972 µM) in the experiment with Candida albicans; 1000 mg/L (≈ 1940 µM) with Aspergillus fumigatus; 100 mg/L (≈ 194 µM) against Escherichia coli; 200 mg/L (≈ 389 µM) in the experiment on Vibrio cholerae; 100 mg/L (≈ 194 µM) against Streptococcus pneumoniae. Also, the MIC99 against Salmonella typhi stood at 200 mg/L (≈ 389 µM); against Bacillus subtilis it was 250 mg/L (≈ 486 µM). For the same compound, the inhibition of growth at 6.25 µg/mL in experiment [1] stood at 96%. The compound also returned an MIC in [2] of 12.5 mg/L (≈ 24.3 µM).

As for `Cc1ccc2nc(Oc3ccc(F)cc3)c(-c3c(C#N)c(N)n4c(nc5ccccc54)c3C#N)cc2c1`, the MIC99 was 250 mg/L (≈ 516 µM) against Clostridium tetani; 250 mg/L (≈ 516 µM) against Candida albicans; 500 mg/L (≈ 1030 µM) in the experiment on Aspergillus fumigatus; 200 mg/L (≈ 413 µM) in the experiment with Escherichia coli; 250 mg/L (≈ 516 µM) with Vibrio cholerae; 200 mg/L (≈ 413 µM) in the experiment with Streptococcus pneumoniae. The MIC99 with Salmonella typhi and against Bacillus subtilis was 250 mg/L (≈ 516 µM) in each case. For the same compound, the inhibition of growth at 6.25 µg/mL in experiment [1] was 94%. This compound also displayed an MIC in [2] of 25 mg/L (≈ 51.6 µM).

`Cc1ccc2c(c1)nc1c(C#N)c(-c3cc4ccccc4nc3Oc3ccc(F)cc3)c(C#N)c(N)n12`: the MIC99 with Clostridium tetani is 250 mg/L (≈ 516 µM); in the experiment on Candida albicans it was 250 mg/L (≈ 516 µM); with Aspergillus fumigatus it was > 1000 mg/L; with Escherichia coli it was 62.5 mg/L (≈ 129 µM); in the experiment with Vibrio cholerae, 500 mg/L (≈ 1030 µM); with Streptococcus pneumoniae it was 100 mg/L (≈ 206 µM). In addition, the MIC99 in the experiment on Salmonella typhi amounted to 125 mg/L (≈ 258 µM); against Bacillus subtilis it was 500 mg/L (≈ 1030 µM). Further, the inhibition of growth at 6.25 µg/mL in experiment [1] was found to be 99%. In experiment [2], this compound registered an MIC of 6.25 mg/L (≈ 12.9 µM).

For the compound `Cc1ccc2nc(Oc3ccc(F)cc3)c(-c3c(C#N)c(N)n4c(nc5cc(C)ccc54)c3C#N)cc2c1`, the MIC99 was 100 mg/L (≈ 201 µM) against Clostridium tetani; > 1000 mg/L in the experiment on Candida albicans; > 1000 mg/L with Aspergillus fumigatus; 200 mg/L (≈ 401 µM) in the experiment with Escherichia coli; 100 mg/L (≈ 201 µM) in the experiment on Vibrio cholerae; 200 mg/L (≈ 401 µM) in the experiment on Streptococcus pneumoniae. In addition, the values for the MIC99 in the experiment with Salmonella typhi and in the experiment with Bacillus subtilis were 200 mg/L (≈ 401 µM) and 250 mg/L (≈ 501 µM), respectively. The inhibition of growth at 6.25 µg/mL in experiment [1] amounted to 97%. For the same compound, the MIC in experiment [2] was 12.5 mg/L (≈ 25.1 µM).

Take `N#Cc1c(-c2cc3ccccc3nc2Oc2ccccc2)c(C#N)c2nc3ccccc3n2c1N`: the MIC99 was determined as 100 mg/L (≈ 221 µM) with Clostridium tetani; 1000 mg/L (≈ 2210 µM) in the experiment with Candida albicans; 500 mg/L (≈ 1110 µM) in the experiment on Aspergillus fumigatus; 250 mg/L (≈ 553 µM) against Escherichia coli; 200 mg/L (≈ 442 µM) with Vibrio cholerae; 62.5 mg/L (≈ 138 µM) with Streptococcus pneumoniae. Further, the MIC99 worked out at 250 mg/L (≈ 553 µM) against Salmonella typhi and 100 mg/L (≈ 221 µM) in the experiment on Bacillus subtilis. The inhibition of growth at 6.25 µg/mL in experiment [1] is 80%.

As to `NNC(=O)c1ccncc1` [ISONIAZID], in experiment [1], the inhibition of growth at 6.25 µg/mL amounted to 99%. It took 0.2 mg/L (≈ 1.46 µM) to inhibit growth in experiment [2] (MIC).

For `CO[C@H]1/C=C/O[C@@]2(C)Oc3c(C)c(O)c4c(O)c(c(/C=N/N5CCN(C)CC5)c(O)c4c3C2=O)NC(=O)/C(C)=C\C=C\[C@H](C)[C@H](O)[C@@H](C)[C@@H](O)[C@@H](C)[C@H](OC(C)=O)[C@@H]1C` [RIFAMPIN], the inhibition of growth at 6.25 µg/mL in [1] was 98%. In addition, in [2], it took 40 mg/L (≈ 48.6 µM) to inhibit growth (MIC).

Source of the values: ChEMBL document CHEMBL3046907, “Microwave-assisted synthesis of pyrido[1,2-a]benzimidazole derivatives of -aryloxyquinoline and their antimicrobial and antituberculosis activities” (2013).
